{"source": "ChEMBL document CHEMBL1158031", "about": "“Biscembranes from the soft coral Sarcophyton glaucum” (J Nat Prod, 2006)", "key": {"[1]": {"tested_on": "HL-60", "test": "Cytotoxicity against human HL-60 upto 100 uM", "type": "functional, cell-based"}, "[2]": {"tested_on": "HL-60", "test": "Cytotoxicity against human HL-60", "type": "functional, cell-based"}}, "note": "Activity calls are given as the source filed them. No cut-off for these calls is given here.", "data": [{"smiles": "COC(=O)[C@]12CC(=O)[C@H](C(C)C)CC(=O)/C(C)=C/CC/C(C)=C/C(=O)[C@H]1CC(C)=C1C[C@H](O)[C@](C)(O)[C@H]3CC[C@@](C)(O)[C@H](CC/C(C)=C/[C@@H]12)O3", "values": [{"measurement": "Activity", "setting": "[1]", "value": "inactive"}]}, {"smiles": "COC(=O)[C@]12CC(=O)[C@H](C(C)C)CC(=O)/C(C)=C/CC/C(C)=C/C(=O)[C@H]1CC(C)=C1C[C@H](OC(C)=O)[C@](C)(O)[C@H]3CC[C@@](C)(O)[C@H](CC/C(C)=C/[C@@H]12)O3", "values": [{"measurement": "Activity", "setting": "[1]", "value": "inactive"}]}, {"smiles": "COC(=O)[C@]12CC(=O)[C@H](C(C)C)CC(=O)/C(C)=C/CC/C(C)=C\\C(=O)[C@H]1CC(C)=C1C[C@H](OC(C)=O)[C@](C)(O)[C@H]3CC[C@@](C)(O)[C@H](CC/C(C)=C/[C@@H]12)O3", "note": "[BISGLAUCUMLIDE C]", "values": [{"measurement": "IC50", "setting": "[2]", "value": 33.7, "unit": "µM"}]}, {"smiles": "COC(=O)[C@]12CC(=O)[C@H](C(C)C)CC(=O)/C(C)=C\\CC/C(C)=C\\C(=O)[C@H]1CC(C)=C1C[C@H](OC(C)=O)[C@](C)(O)[C@H]3CC[C@@](C)(O)[C@H](CC/C(C)=C/[C@@H]12)O3", "note": "[BISGLAUCUMLIDE D]", "values": [{"measurement": "IC50", "setting": "[2]", "value": 42.3, "unit": "µM"}]}]}
